Four compounds from patent publication US9051278B2, “3,4-disubstituted 1H-pyrazole compounds and their use as cyclin dependent kinase and glycogen synthase kinase-3 modulators” (Astex Therapeutics, Ltd., priority 2003, dated 2015) can be followed below.

SMILES strings stand for the structures.

Assay [1] deals with human colon carcinoma cell line HCT 116. The assay is described as follows: Anti-proliferative activity, Alamar Blue assay. The assay is classed as cell-based. Particulars: HCT 116, 72 hours, read-out: IC50 (inhibition of cell growth). The protocol:
The anti-proliferative activities of compounds of the invention are determined by measuring the ability of the compounds to inhibition of cell growth in a number of cell lines Inhibition of cell growth is measured using the Alamar Blue assay (Nociari, M. M, Shalev, A., Benias, P., Russo, C. Journal of Immunological Methods 1998, 213, 157-167). The method is based on the ability of viable cells to reduce resazurin to its fluorescent product resorufin. For each proliferation assay cells are plated onto 96 well plates and allowed to recover for 16 hours prior to the addition of inhibitor compounds for a further 72 hours. At the end of the incubation period 10% (v/v) Alamar Blue is added and incubated for a further 6 hours prior to determination of fluorescent product at […]. In the case of the non-proliferating cell assay cells are maintained at confluence for 96 hour prior to the addition of inhibitor compounds for a further 72 hours. The number of viable cells is determined by Alamar Blue assay as before. All cell lines are obtained from ECACC (European Collection of cell Cultures).
Background: The colour change of resazurin is a common sign of viable cells or microbes.

Another assay addresses T1, GSK3-β (Homo sapiens, UniProt P49841).
T1 construct: purchased Upstate Discovery
Description: Inhibitory activity against glycogen synthase kinase-3 (Protocol A or B). The format is biochemical. Particulars: either Protocol A or Protocol B; read-out: IC50 (GSK3-B assays). As to the method: The activities of the compounds of the invention as inhibitors of GSK-3 were determined using either Protocol A or Protocol B below.
The reaction is allowed to proceed for 3 hours before being stopped with an excess of ortho-phosphoric acid (5 μl at 2%). The filtration procedure is as for Activated CDK2/CyclinA assay above.
GSK3β (human) is diluted to a 10× working stock in 50 mM Tris pH 7.5, 0.1 mM EGTA, 0.1 mM sodium vanadate, 0.1% β-mercaptoethanol, 1 mg/ml BSA.

T1 sequence (P49841 whole entry): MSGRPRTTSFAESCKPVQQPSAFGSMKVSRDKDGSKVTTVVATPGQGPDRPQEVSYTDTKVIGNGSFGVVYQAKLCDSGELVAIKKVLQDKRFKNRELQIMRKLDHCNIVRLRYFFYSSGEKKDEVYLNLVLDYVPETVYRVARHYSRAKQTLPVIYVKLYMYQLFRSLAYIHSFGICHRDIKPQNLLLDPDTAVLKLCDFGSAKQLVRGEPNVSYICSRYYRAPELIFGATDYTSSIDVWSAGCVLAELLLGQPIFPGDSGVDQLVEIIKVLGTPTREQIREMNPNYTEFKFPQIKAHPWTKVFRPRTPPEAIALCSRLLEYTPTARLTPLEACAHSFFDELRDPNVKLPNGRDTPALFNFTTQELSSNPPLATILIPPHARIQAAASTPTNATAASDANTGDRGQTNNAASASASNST

As a reminder, the IC50 is the concentration that inhibits the measured activity by half. As to `O=C(NC1CCNCC1)c1n[nH]cc1NC(=O)c1c(Cl)cccc1Cl` [Example 150], the concentration for half-maximal inhibition (IC50) in assay [1] was less than 20 µM.
For the compound `CC(C)(C)C1CCC(NC(=O)c2n[nH]cc2NC(=O)c2c(F)cccc2F)CC1` (centres unmarked) [Example 77], the half-inhibitory concentration (IC50) in assay [1] is less than 20 µM; at GSK3-β, less than 10 µM.
`COc1ccc(CNC(=O)c2n[nH]cc2NC(=O)c2c(F)cccc2F)cc1` [Example 62]: the IC50 in assay [1] was less than 20 µM.
In the case of `CN1CCN(c2ccc(CNC(=O)c3n[nH]cc3NC(=O)c3c(F)cccc3F)cc2)CC1` [Example 64], the half-inhibitory concentration (IC50) in assay [1] was less than 20 µM.
